In assay [1] the target is T1, Thymidine kinase, cytosolic (Homo sapiens, UniProt P04183).
T1 sequence (P04183 whole entry): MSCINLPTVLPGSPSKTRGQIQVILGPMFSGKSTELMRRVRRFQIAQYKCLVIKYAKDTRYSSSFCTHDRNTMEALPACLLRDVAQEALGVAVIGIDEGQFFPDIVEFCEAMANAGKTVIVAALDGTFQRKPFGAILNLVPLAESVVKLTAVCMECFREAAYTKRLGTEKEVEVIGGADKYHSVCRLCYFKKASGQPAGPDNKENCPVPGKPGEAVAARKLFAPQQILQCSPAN
The assay can be described thus: Inhibitory concentration against cytosolic thymidine kinase (TK-1).

Assay [2] addresses T2, Thymidine kinase (Human herpesvirus 1 (strain SC16) (HHV-1) (Human herpes simplex virus1), UniProt P06479).
T2 sequence (P06479 whole entry): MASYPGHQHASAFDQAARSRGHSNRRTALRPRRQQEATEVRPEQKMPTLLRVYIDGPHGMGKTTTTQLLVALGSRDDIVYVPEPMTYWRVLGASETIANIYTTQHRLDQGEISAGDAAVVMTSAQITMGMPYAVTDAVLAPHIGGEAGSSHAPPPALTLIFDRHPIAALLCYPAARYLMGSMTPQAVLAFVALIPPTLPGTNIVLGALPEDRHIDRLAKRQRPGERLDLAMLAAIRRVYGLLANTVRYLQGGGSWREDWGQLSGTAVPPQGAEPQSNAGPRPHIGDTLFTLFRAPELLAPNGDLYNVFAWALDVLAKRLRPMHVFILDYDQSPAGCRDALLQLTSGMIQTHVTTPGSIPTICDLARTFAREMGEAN
The assay can be described thus: Inhibitory concentration against Herpes simplex virus type 1 thymidine kinase(HSV-1 TK). On the set-up: species or system Herpes simplex virus (type 1 / strain SC16).

Assay [3] concerns the target T3, Thymidine kinase 2, mitochondrial (Homo sapiens, UniProt O00142).
T3 sequence (O00142 whole entry): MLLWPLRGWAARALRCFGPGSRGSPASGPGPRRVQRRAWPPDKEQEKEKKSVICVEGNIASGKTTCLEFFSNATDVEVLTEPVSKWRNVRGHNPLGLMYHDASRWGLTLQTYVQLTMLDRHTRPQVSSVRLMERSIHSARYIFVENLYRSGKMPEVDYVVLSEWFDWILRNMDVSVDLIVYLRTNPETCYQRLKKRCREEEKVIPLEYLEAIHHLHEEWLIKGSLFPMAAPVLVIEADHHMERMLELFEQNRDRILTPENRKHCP
The assay can be described thus: Inhibitory concentration against mitochondrial thymidine kinase (TK-2).

Assay [4] addresses T4, Thymidine kinase (Varicella-zoster virus (strain Dumas) (HHV-3) (Human herpesvirus 3), UniProt P09250).
T4 sequence (P09250 whole entry): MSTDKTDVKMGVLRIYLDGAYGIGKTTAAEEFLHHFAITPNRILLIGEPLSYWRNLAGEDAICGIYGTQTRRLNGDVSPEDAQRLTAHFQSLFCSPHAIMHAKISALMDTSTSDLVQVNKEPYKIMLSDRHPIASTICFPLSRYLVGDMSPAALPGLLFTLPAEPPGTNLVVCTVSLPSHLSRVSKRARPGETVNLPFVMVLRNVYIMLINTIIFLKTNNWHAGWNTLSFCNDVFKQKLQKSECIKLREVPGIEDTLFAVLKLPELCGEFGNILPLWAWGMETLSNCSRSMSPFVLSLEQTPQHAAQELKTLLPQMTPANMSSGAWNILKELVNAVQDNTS
As to the kind of experiment: Inhibitory concentration against Varicella- zoster virus thymidine kinase(VZV TK). On the set-up: species or system Human alphaherpesvirus 3.

A further assay deals with T5, Deoxynucleoside kinase (Drosophila melanogaster, UniProt Q9XZT6).
T5 sequence (Q9XZT6 whole entry): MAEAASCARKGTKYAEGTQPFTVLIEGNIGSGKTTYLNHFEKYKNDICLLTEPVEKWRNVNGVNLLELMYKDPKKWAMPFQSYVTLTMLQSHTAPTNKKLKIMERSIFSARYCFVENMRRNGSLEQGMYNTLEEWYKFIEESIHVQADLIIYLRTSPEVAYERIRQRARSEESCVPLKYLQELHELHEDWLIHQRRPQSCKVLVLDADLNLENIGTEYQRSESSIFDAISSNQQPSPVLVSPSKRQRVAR
As to the kind of experiment: Inhibitory concentration against Drosophila melanogaster deoxyribonucleoside kinase (Dm-dNK).

The results in this text go back to ChEMBL document CHEMBL1134069 (Bioorg Med Chem Lett, 2001).

Each structure is given as a SMILES string.

Broadly, the IC50 is the concentration needed to halve the response being measured. Read a high IC50 as weaker potency in that assay. Turning to `CCCCCCCCO[C@H]1[C@H](O)[C@@H](CO)O[C@H]1n1ccc(N)nc1=O`, the IC50 (in assay [1]; on Thymidine kinase [2]; in assay [3]; against Thymidine kinase [4]) was greater than 1000 µM each time.
With `Nc1ccn([C@@H]2O[C@H](CO)[C@@H](O)[C@@H]2O)c(=O)n1` [CYTARABINE], the IC50 (in assay [1]; against Thymidine kinase [2]; in assay [3]; on Thymidine kinase [4]) was greater than 1000 µM throughout.
As for `CCCCCCCCCC(=O)O[C@H]1[C@H](O)[C@@H](CO)O[C@H]1n1cc(/C=C/Br)c(=O)[nH]c1=O`, the IC50 is greater than 1000 µM in assay [1]; greater than 1000 µM against Thymidine kinase [2]; 163 µM at Deoxynucleoside kinase; 6.8 µM in assay [3]; 845 µM at Thymidine kinase [4].
With `Cc1cn([C@@H]2O[C@H](CO)[C@@H](O)[C@H]2OCc2ccccc2)c(=O)[nH]c1=O`, the IC50 was greater than 1000 µM in assay [1]; greater than 1000 µM against Thymidine kinase [2]; greater than 1000 µM at Deoxynucleoside kinase; 801 µM in assay [3]; greater than 1000 µM on Thymidine kinase [4].
As for `Cc1cn([C@@H]2O[C@H](CO)[C@@H](O)[C@@H]2O)c(=O)[nH]c1=O`, the IC50 in assay [1] was greater than 1000 µM; against Thymidine kinase [2], 24 µM; against Deoxynucleoside kinase, 65 µM; in assay [3] it was 285 µM; on Thymidine kinase [4] it was 17 µM.
With `O=c1[nH]c(=O)n(C2O[C@H](CO)[C@@H](O)[C@@H]2O)cc1/C=C\Br` (some centres not stated), the IC50 in assay [1] was greater than 500 µM; at Thymidine kinase [2], 4.3 µM; on Deoxynucleoside kinase, 31.6 µM; in assay [3] it was 43 µM; against Thymidine kinase [4] it was 3.3 µM.
Taken in the same sequence, the figures for `CCCCCCCCCCCC(=O)O[C@H]1[C@H](O)[C@@H](CO)O[C@H]1n1cc(C)c(=O)[nH]c1=O` were greater than 1000 µM, greater than 1000 µM, greater than 1000 µM, 28 µM and greater than 1000 µM.
For `COCC(=O)O[C@H]1[C@H](O)[C@@H](CO)O[C@H]1n1cc(/C=C/Br)c(=O)[nH]c1=O`, the 50% inhibitory concentration (IC50) is greater than 1000 µM in assay [1], 84 µM on Thymidine kinase [2], 402 µM in assay [3] and 35 µM at Thymidine kinase [4].
Consider `CCCCCCCCO[C@H]1[C@H](O)[C@@H](CO)O[C@H]1n1cc(C)c(=O)[nH]c1=O`, for which the IC50 in assay [1] is greater than 1000 µM; on Thymidine kinase [2], greater than 1000 µM; against Deoxynucleoside kinase, greater than 1000 µM; in assay [3], 120 µM; on Thymidine kinase [4], greater than 1000 µM.
Regarding `CCCCCCCCCC(=O)O[C@H]1[C@H](O)[C@@H](CO)O[C@H]1n1cc(C)c(=O)[nH]c1=O`, the IC50 was greater than 1000 µM in assay [1]; greater than 1000 µM at Thymidine kinase [2]; 872 µM against Deoxynucleoside kinase; 27 µM in assay [3]; greater than 1000 µM at Thymidine kinase [4].
As to `CCCCCCCC(=O)O[C@H]1[C@H](O)[C@@H](CO)O[C@H]1n1cc(/C=C/Br)c(=O)[nH]c1=O`, the concentration for half-maximal inhibition (IC50) in assay [1] is greater than 1000 µM; on Thymidine kinase [2], greater than 1000 µM; at Deoxynucleoside kinase it was 178 µM; in assay [3], 6.3 µM; against Thymidine kinase [4] it was 718 µM.
For the compound `CCCCC(=O)O[C@H]1[C@H](O)[C@@H](CO)O[C@H]1n1cc(C)c(=O)[nH]c1=O`, the IC50 (in assay [1]; against Thymidine kinase [2]; on Deoxynucleoside kinase; in assay [3]; against Thymidine kinase [4]) was greater than 1000 µM throughout.
